According to patent publication US20130165641A1, “6,11-BRIDGED BIARYL MACROLIDES” (Enanta Pharmaceuticals, Inc., priority 2007, published 2013):
Converted amounts (≈) assume the structure as drawn.

Key:
H. influenzae = test: MIC by micro-dilution method, H. influenzae isolates; format: cell-based, Haemophilus influenzae
Description: (§1) Susceptibility tests can be used to quantitatively measure the in vitro activity of an antimicrobial agent against a given bacterial isolate. Compounds are tested for in vitro antibacterial activity by a micro-dilution method. Minimal Inhibitory Concentration (MIC) is determined in 96 well microtiter plates utilizing the appropriate broth medium for the observed bacterial isolates. […] The diluted compounds (2 μl/well) are then transferred into sterile, uninoculated medium (0.2 mL) by use of a 96 fixed tip-pipetting station. The inoculum for each bacterial strain is standardized to approximately 5×10^5 CFU/mL by optical comparison to a 0.5 McFarland turbidity standard. The plates are inoculated with 10 μl/well of adjusted bacterial inoculum. The 96 well plates are covered and incubated at 35+/−2° C. for 24 hours in ambient air environment. Following incubation, plate wells are visually examined by Optical Density measurement for the presence of growth (turbidity). The lowest concentration of an antimicrobial agent at which no visible growth occurs is defined as the MIC.
(§2) All in vitro testing follows the guidelines described in the Approved Standards M7-A7 protocol, published by the Clinical Laboratory Standards Institute (CLSI).

MRSA = test: MIC by micro-dilution method, MRSA isolates; format: cell-based, Staphylococcus aureus; settings: compounds of Formula XVI; for MIC MRSA 7662: MRSA isolate 7662; for MIC MRSA 33591: MRSA isolate 33591
Description: as §1, §2

SMILES | MIC (H. influenzae; H. influenzae 33929) [µg/mL] | MIC (H. influenzae; H. influenzae 49247) [µg/mL] | MIC MRSA 7662 (MRSA) [µg/mL] | MIC MRSA 33591 (MRSA) [µg/mL]
CCC1OC(=O)C(C)C(=O)C(C)C(OC2OC(C)CC(N(C)C)C2O)C2(C)CC(C)C(=NC(C)=O)C(C)C(OCC(=NOCc3cnc(-c4cccc(N)n4)s3)CO2)C1(C)O (centres unmarked) [Example 37] | 4 (≈ 4.58 µM) | 2 (≈ 2.29 µM) |  | 
CCC1OC(=O)C(C)C(=O)C(C)C(OC2OC(C)CC(N(C)C)C2O)C2(C)CC(C)C(=O)C(C)C(OCC(=NOCc3ccc(-n4nnnc4N)cc3)CO2)C1(C)O (centres unmarked) [Example 46] | 2 (≈ 2.45 µM) | 2 (≈ 2.45 µM) |  | 
CCC1OC(=O)C(C)C(=O)C(C)C(OC2OC(C)CC(N(C)C)C2O)C2(C)CC(C)C(=O)C(C)C(OCC(=NOCc3ccc(-c4coc(N)n4)cn3)CO2)C1(C)O (centres unmarked) [Example 55] | 2 (≈ 2.45 µM) | 1 (≈ 1.23 µM) |  | 
CCC1OC(=O)C(C)C(=O)C(C)C(OC2OC(C)CC(N(C)C)C2O)C2(C)CC(C)C(=NC(C)=O)C(C)C(OCC(=NOCc3ccc(-c4nsc(N)n4)cc3)CO2)C1(C)O (centres unmarked) [Example 48] | 2 (≈ 2.29 µM) |  |  | 
CCC1OC(=O)C(C)C(=O)C(C)C(OC2OC(C)CC(N(C)C)C2O)C2(C)CC(C)C(=O)C(C)C(OCC(=NOCc3ccc(-c4nc(N)no4)cn3)CO2)C1(C)O (centres unmarked) [Example 45] | 2 (≈ 2.45 µM) | 1 (≈ 1.22 µM) |  | 
CCC1OC(=O)C(C)C(=O)C(C)C(OC2OC(C)CC(N(C)C)C2O)C2(C)CC(C)C(=O)C(C)C(OCC(=NOCc3ncc(-c4cccc(N)n4)s3)CO2)C1(C)O (centres unmarked) [Example 36] | 2 (≈ 2.4 µM) | 2 (≈ 2.4 µM) |  | 
CCC1OC(=O)C(C)C(=O)C(C)C(OC2OC(C)CC(N(C)C)C2O)C2(C)CC(C)C(=O)C(C)C(OCC(=NOCc3ncc(-c4cccc(N)n4)s3)CO2)C1(C)O (centres unmarked) [Example 63] | 2 (≈ 2.4 µM) | 1 (≈ 1.2 µM) |  | 
CCC1OC(=O)C(C)(F)C(=O)C(C)C(OC2OC(C)CC(N(C)C)C2O)C2(C)CC(C)C(=O)C(C)C(OCC(=NOCc3ccc(-c4nc(N)no4)cn3)CO2)C1(C)O (centres unmarked) [Example 43] | 2 (≈ 2.4 µM) | 2 (≈ 2.4 µM) |  | 
CCC1OC(=O)C(C)C(=O)C(C)C(OC2OC(C)CC(N(C)C)C2O)C2(C)CC(C)C(=O)C(C)C(OCC(=NOCc3cnc(-c4nsc(N)n4)cn3)CO2)C1(C)O (centres unmarked) [Example 68] | 2 (≈ 2.4 µM) | 2 (≈ 2.4 µM) |  | 
CCC1OC(=O)C(C)C(=O)C(C)C(OC2OC(C)CC(N(C)C)C2O)C2(C)CC(C)C(=O)C(C)C(OCC(=NOCc3ccc(-c4nc(N)no4)cc3)CO2)C1(C)O (centres unmarked) [Example 42] | 2 (≈ 2.45 µM) | 1 (≈ 1.23 µM) |  | 
CCC1OC(=O)C(C)C(=O)C(C)C(OC2OC(C)CC(N(C)C)C2O)C2(C)CC(C)C(=O)C(C)C(OCC(=NOCc3ccc(-c4coc(N)n4)nc3)CO2)C1(C)O (centres unmarked) [Example 60] | 2 (≈ 2.45 µM) | 2 (≈ 2.45 µM) |  | 
CCC(=O)N=C1C(C)CC2(C)OCC(=NOCc3ccn(-c4cccc(N)n4)n3)COC(C1C)C(C)(O)C(CC)OC(=O)C(C)(F)C(=O)C(C)C2OC1OC(C)CC(N(C)C)C1O (centres unmarked) [Example 57] | 4 (≈ 4.5 µM) | 2 (≈ 2.25 µM) |  | 
CCC1OC(=O)C(C)C(=O)C(C)C(OC2OC(C)CC(N(C)C)C2O)C2(C)CC(C)C(=O)C(C)C(OCC(=NOCc3coc(-c4cccc(N)n4)n3)CO2)C1(C)O (centres unmarked) [Example 39] | 1 (≈ 1.23 µM) | 1 (≈ 1.23 µM) |  | 
CCC1OC(=O)C(C)(F)C(=O)C(C)C(OC2OC(C)CC(N(C)C)C2O)C2(C)CC(C)C(=NC(C)=O)C(C)C(OCC(=NOCc3ccc(-n4ccc(N)n4)c(F)c3)CO2)C1(C)O (centres unmarked) [Example 95] |  |  | 8 (≈ 8.98 µM) | 8 (≈ 8.98 µM)
CCC1OC(=O)C(C)(F)C(=O)C(C)C(OC2OC(C)CC(N(C)C)C2O)C2(C)CC(C)C(=NC(=O)C(C)C)C(C)C(OCC(=NOCc3ccc(-n4ccc(N)n4)cn3)CO2)C1(C)O (centres unmarked) [Example 87] |  |  | 2 (≈ 2.22 µM) | 4 (≈ 4.43 µM)
CC[C@H]1OC(=O)[C@@](C)(F)C(=O)[C@H](C)[C@@H](O[C@@H]2O[C@H](C)C[C@H](N(C)C)[C@H]2O)[C@@]2(C)C[C@@H](C)C(=NC(=O)C(C)C)[C@H](C)[C@@H](OC/C(=N\OCc3ncc(-c4cccc(N)n4)cn3)CO2)[C@]1(C)O [Example 100] |  |  | 8 (≈ 8.75 µM) | 8 (≈ 8.75 µM)
[2H]C([2H])([2H])C([2H])([2H])C(=O)N=C1[C@H](C)C[C@@]2(C)OC/C(=N/OCc3ccc(-c4nc(N)cs4)cn3)CO[C@H]([C@H]1C)[C@](C)(O)[C@@H](CC)OC(=O)[C@@](C)(F)C(=O)[C@H](C)[C@H]2O[C@@H]1O[C@H](C)C[C@H](N(C)C)[C@H]1O [Example 135] |  |  | 2.00 (≈ 2.2 µM) | 2.00 (≈ 2.2 µM)

SMILES | MIC (H. influenzae; H. influenzae 33929) [µg/mL] | MIC (H. influenzae; H. influenzae 49247) [µg/mL] | MIC MRSA 7662 (MRSA) [µg/mL] | MIC MRSA 33591 (MRSA) [µg/mL]
CCC1OC(=O)C(C)(F)C(=O)C(C)C(OC2OC(C)CC(N(C)C)C2O)C2(C)CC(C)C(=NC(=O)C3CC3)C(C)C(OCC(=NOCc3ccc(-n4ccc(N)n4)cc3)CO2)C1(C)O (centres unmarked) [Example 93] |  |  | 8 (≈ 8.9 µM) | 8 (≈ 8.9 µM)
CCC1OC(=O)C(C)(F)C(=O)C(C)C(OC2OC(C)CC(N(C)C)C2O)C2(C)CC(C)C(=NC(=O)C(C)C)C(C)C(OCC(=NOCc3ccc(-c4cccc(N)n4)cn3)CO2)C1(C)O (centres unmarked) [Example 80] |  |  | 4 (≈ 4.38 µM) | 4 (≈ 4.38 µM)
CC[C@H]1OC(=O)[C@@](C)(F)C(=O)[C@H](C)[C@@H](O[C@@H]2O[C@H](C)C[C@H](N(C)C)[C@H]2O)[C@@]2(C)C[C@@H](C)C(=NC(C)=O)[C@H](C)[C@@H](OC/C(=N\OCc3cnc(-c4cccc(N)n4)cn3)CO2)[C@]1(C)O [Example 103] |  |  | 8 (≈ 9.03 µM) | 8 (≈ 9.03 µM)
CCC(=O)N=C1[C@H](C)C[C@@]2(C)OC/C(=N/OCc3cnc(-c4nccc(N)n4)s3)CO[C@H]([C@H]1C)[C@](C)(O)[C@@H](CC)OC(=O)[C@@](C)(F)C(=O)[C@H](C)[C@H]2O[C@@H]1O[C@H](C)C[C@H](N(C)C)[C@H]1O [Example 131] |  |  | 4.00 (≈ 4.41 µM) | 8.00 (≈ 8.83 µM)
CCC1OC(=O)C(C)(F)C(=O)C(C)C(OC2OC(C)CC(N(C)C)C2O)C2(C)CC(C)C(=NC(=O)C3CC3)C(C)C(OCC(=NOCc3ccc(-c4cccc(N)n4)cn3)CO2)C1(C)O (centres unmarked) [Example 77] |  |  | 8 (≈ 8.78 µM) | 8 (≈ 8.78 µM)
CCC1OC(=O)C(C)(F)C(=O)C(C)C(OC2OC(C)CC(N(C)C)C2O)C2(C)CC(C)C(=NC(C)=O)C(C)C(OCC(=NOCc3ccc(-c4cccc(N)n4)cn3)CO2)C1(C)O (centres unmarked) [Example 74] |  |  | 8 (≈ 9.04 µM) | 8 (≈ 9.04 µM)
CC[C@H]1OC(=O)[C@@](C)(F)C(=O)[C@H](C)[C@@H](O[C@@H]2O[C@H](C)C[C@H](N(C)C)[C@H]2O)[C@@]2(C)C[C@@H](C)C(=NC(C)=O)[C@H](C)[C@@H](OC/C(=N\OCc3ccc(-c4nccc(N)n4)cn3)CO2)[C@]1(C)O [Example 102] |  |  | 8 (≈ 9.03 µM) | 8 (≈ 9.03 µM)
CC[C@H]1OC(=O)[C@@](C)(F)C(=O)[C@H](C)[C@@H](O[C@@H]2O[C@H](C)C[C@H](N(C)C)[C@H]2O)[C@@]2(C)C[C@@H](C)C(=NC(=O)OC)[C@H](C)[C@@H](OC/C(=N\OCc3ccc(-n4ccc(N)n4)cn3)CO2)[C@]1(C)O [Example 124] |  |  | 4.00 (≈ 4.49 µM) | 8.00 (≈ 8.99 µM)
CC[C@H]1OC(=O)[C@@](C)(F)C(=O)[C@H](C)[C@@H](O[C@@H]2O[C@H](C)C[C@H](N(C)C)[C@H]2O)[C@@]2(C)C[C@@H](C)C(=NC(=O)C3CC3)[C@H](C)[C@@H](OC/C(=N\OCc3ncc(-c4cccc(N)n4)s3)CO2)[C@]1(C)O [Example 112] |  |  | 4 (≈ 4.36 µM) | 8 (≈ 8.72 µM)
CCC(=O)N=C1[C@H](C)C[C@@]2(C)OC/C(=N/OCc3cnc(-c4nc(N)cs4)cn3)CO[C@H]([C@H]1C)[C@](C)(O)[C@@H](CC)OC(=O)[C@@](C)(F)C(=O)[C@H](C)[C@H]2O[C@@H]1O[C@H](C)C[C@H](N(C)C)[C@H]1O [Example 133] |  |  | 2.00 (≈ 2.21 µM) | 4.00 (≈ 4.41 µM)
CC[C@H]1OC(=O)[C@@](C)(F)C(=O)[C@H](C)[C@@H](O[C@@H]2O[C@H](C)C[C@H](N(C)C)[C@H]2O)[C@@]2(C)C[C@@H](C)C(=NC(=O)C(C)C)[C@H](C)[C@@H](OC/C(=N\OCc3ncc(-c4cccc(N)n4)s3)CO2)[C@]1(C)O [Example 111] |  |  | 2 (≈ 2.18 µM) | 2 (≈ 2.18 µM)
CCC(=O)N=C1[C@H](C)C[C@@]2(C)OC/C(=N/OCc3ncc(-c4cccc(N)n4)s3)CO[C@H]([C@H]1C)[C@](C)(O)[C@@H](CC)OC(=O)[C@@](C)(F)C(=O)[C@H](C)[C@H]2O[C@@H]1O[C@H](C)C[C@H](N(C)C)[C@H]1O [Example 110] |  |  | 2 (≈ 2.21 µM) | 2 (≈ 2.21 µM)
CCC1OC(=O)C(C)(F)C(=O)C(C)C(OC2OC(C)CC(N(C)C)C2O)C2(C)CC(C)C(=NC(C)=O)C(C)C(OCC(=NOCc3ccc(-n4ccc(N)n4)nc3)CO2)C1(C)O (centres unmarked) [Example 78] |  |  | 8 (≈ 9.15 µM) | 8 (≈ 9.15 µM)
CCC1OC(=O)C(C)C(=O)C(C)C(OC2OC(C)CC(N(C)C)C2O)C2(C)CC(C)C(=NC(C)=O)C(C)C(OCC(=NOCc3ccc(-n4ccc(N)n4)cc3F)CO2)C1(C)O (centres unmarked) [Example 84] |  |  | 8 (≈ 9.16 µM) | 8 (≈ 9.16 µM)
CCC1OC(=O)C(C)(F)C(=O)C(C)C(OC2OC(C)CC(N(C)C)C2O)C2(C)CC(C)C(=NC(C)=O)C(C)C(OCC(=NOCc3ccc(-n4ccc(N)n4)cc3F)CO2)C1(C)O (centres unmarked) [Example 85] |  |  | 4 (≈ 4.49 µM) | 8 (≈ 8.98 µM)
CCC1OC(=O)C(C)C(=O)C(C)C(OC2OC(C)CC(N(C)C)C2O)C2(C)CC(C)C(=NC(=O)C(C)C)C(C)C(OCC(=NOCc3ccc(-n4ccc(N)n4)cc3F)CO2)C1(C)O (centres unmarked) [Example 98] |  |  | 8 (≈ 8.88 µM) | 8 (≈ 8.88 µM)
